{"source": "patent US20220162191A1", "about": "“SMALL MOLECULE MODULATORS OF IL-17” (LEO PHARMA A/S, priority 2019, published 2022)", "note": "Where a name gives a salt, the structure may show the parent alone."}
{"molecular_target": "T1, human IL-17AA (Homo sapiens, UniProt Q16552)", "T1 construct": "host or cells: HEK (human embryonic kidney) cells", "T1 sequence (Q16552 24-155) 1": "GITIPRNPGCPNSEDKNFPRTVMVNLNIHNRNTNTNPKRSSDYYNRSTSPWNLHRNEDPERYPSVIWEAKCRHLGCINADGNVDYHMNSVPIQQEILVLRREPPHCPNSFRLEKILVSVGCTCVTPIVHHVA", "T1 sequence (Q16552 24-155) 2": "T1 sequence (Q16552 24-155) 1", "test": "IL-8 release assay in human epithelial keratinocytes adult (HEKa)", "type": "cell-based", "conditions": "3 ng/ml human IL-17AA + 10 ng/ml human TNFalpha, 68-72 h, IL-8 by HTRF, read-out: Rel EC50 L-8 release assay", "method_in_brief": "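IL-8 secretion, quantified by HTRF (665/620 nm) as percent of controls, served as the readout after 68–72 h culture of HEKa cells with compound plus IL-17AA (3 ng/ml final) and TNF-alpha (10 ng/ml final). Four-parameter logistic curves gave relative IC50 and Emax.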", "units": {"EC50": "nM"}}
{"smiles": "Cc1ncn(C)c1-c1ccc(NC(=O)[C@@H](NC(=O)c2ccnn2C)[C@@H]2CCCc3ccc(-c4cccc(C(C)(C)N)c4)cc32)cc1", "note": "[Example 50, N-[(1S)-1-[(1R)-7-[3-(1-amino-1-methyl-ethyl)phenyl]tetralin-1-yl]-2-[4-(3,5-dimethylimidazol-4-yl)anilino]-2-oxo-ethyl]-2-methyl-pyrazole-3-carboxamide]", "EC50": "100 to 1000"}
{"smiles": "Cc1cc(-c2ccc3c(c2)[C@H]([C@H](NC(=O)c2ccnn2C)C(=O)Nc2ccc(-c4c(C)n[nH]c4C)cc2)CC3)ccc1CN1CCOCC1", "note": "[Example 18, N-[(1S)-2-[4-(3,5-dimethyl-1H-pyrazol-4-yl)anilino]-1-[(1R)-6-[3-methyl-4-(morpholinomethyl)phenyl]indan-1-yl]-2-oxo-ethyl]-2-methyl-pyrazole-3-carboxamide]", "EC50": "< 100"}
{"smiles": "Cc1cnn(C)c1-c1ccc(NC(=O)[C@@H](NC(=O)c2ccnn2C)[C@@H]2CCc3ccc(-c4cc(N5C[C@@H]6C[C@H]5CO6)ncn4)cc32)cc1", "note": "[Example 386, N-[(1S)-2-[4-(2,4-dimethylpyrazol-3-yl)anilino]-1-[(1R)-6-[6-[(1S,4S)-2-oxa-5-azabicyclo[2.2.1]heptan-5-yl]pyrimidin-4-yl]indan-1-yl]-2-oxo-ethyl]-2-methyl-pyrazole-3-carboxamide]", "EC50": "100 to 1000"}
{"smiles": "Cc1cnn(C)c1-c1ccc(NC(=O)[C@H](Cc2cc(-c3ccc(=O)n(C(C)C)c3)ccc2Cl)NC(=O)C2CC2)cc1", "note": "[Example 329, N-[(1S)-1-[[2-chloro-5-(1-isopropyl-6-oxo-3-pyridyl)phenyl]methyl]-2-[4-(2,4-dimethylpyrazol-3-yl)anilino]-2-oxo-ethyl]cyclopropanecarboxamide]", "EC50": "100 to 1000"}
{"smiles": "Cn1cnnc1-c1ccc(NC(=O)C(Cc2cc(-c3cccc(OC4CCC4)c3)ccc2Cl)NC(=O)c2ccnn2C)cc1", "note": "(centres unmarked) [Example 145, N-[1-[[2-chloro-5-[3-(cyclobutoxy)phenyl]phenyl]methyl]-2-[4-(4-methyl-1,2,4-triazol-3-yl)anilino]-2-oxo-ethyl]-2-methyl-pyrazole-3-carboxamide]", "EC50": "100 to 1000"}
{"smiles": "Cc1cnn(C)c1-c1ccc(NC(=O)[C@H](Cc2cc(-c3ccc(=O)n(C(C)C)c3)ccc2Cl)NC(=O)CCC(C)C)cc1", "note": "[Example 327, N-[(1S)-1-[[2-chloro-5-(1-isopropyl-6-oxo-3-pyridyl)phenyl]methyl]-2-[4-(2,4-dimethylpyrazol-3-yl)anilino]-2-oxo-ethyl]-4-methyl-pentanamide]", "EC50": "100 to 1000"}
{"smiles": "Cc1n[nH]c(C)c1-c1ccc(NC(=O)C(Cc2cc(-c3ccc(=O)n(C(C)C)c3)ccc2Cl)NC(=O)c2ccnn2C)cc1", "note": "(centres unmarked) [Example 94, N-[1-[[2-chloro-5-(1-isopropyl-6-oxo-3-pyridyl)phenyl]methyl]-2-[4-(3,5-dimethyl-1H-pyrazol-4-yl)anilino]-2-oxo-ethyl]-2-methyl-pyrazole-3-carboxamide]", "EC50": "< 100"}
{"smiles": "CC(C)n1cc(-c2ccc(Cl)c(C[C@H](NC(=O)c3ccnn3C)C(=O)Nc3ccc(-c4cn[nH]c4)c(O)c3)c2)ccc1=O", "note": "[Example 175, N-[(1S)-1-[[2-chloro-5-(1-isopropyl-6-oxo-3-pyridyl)phenyl]methyl]-2-[3-hydroxy-4-(1H-pyrazol-4-yl)anilino]-2-oxo-ethyl]-2-methyl-pyrazole-3-carboxamide]", "EC50": "< 100"}
{"smiles": "Cn1cncc1-c1ccc(NC(=O)[C@H](Cc2cc(-c3cccc(C4CNCCO4)c3)ccc2Cl)NC(=O)c2ccnn2C)cc1", "note": "(stereo partly drawn) [Example 219, N-[(1S)-1-[[2-chloro-5-(3-morpholin-2-ylphenyl)phenyl]methyl]-2-[4-(3-methylimidazol-4-yl)anilino]-2-oxo-ethyl]-2-methyl-pyrazole-3-carboxamide hydrochloride]", "EC50": "100 to 1000"}
{"smiles": "Cc1n[nH]c(C)c1-c1ccc(NC(=O)[C@@H](NC(=O)C2(F)CC2)[C@@H]2CCCc3ccc(-c4ccnc(N5C[C@H]6C[C@@H]5CO6)c4)cc32)cc1", "note": "[Example 387, N-[(1S)-2-[4-(3,5-dimethyl-1H-pyrazol-4-yl)anilino]-1-[(1R)-7-[2-[(1R,4R)-2-oxa-5-azabicyclo[2.2.1]heptan-5-yl]-4-pyridyl]tetralin-1-yl]-2-oxo-ethyl]-1-fluoro-cyclopropanecarboxamide]", "EC50": "< 100"}
{"smiles": "CC(C)n1cc(-c2ccc(Cl)c(C[C@H](NC(=O)C3(F)CC3)C(=O)Nc3ccc(-c4cncn4C)cc3)c2)ccc1=O", "note": "[Example 104, N-[(1S)-1-[[2-chloro-5-(1-isopropyl-6-oxo-3-pyridyl)phenyl]methyl]-2-[4-(3-methylimidazol-4-yl)anilino]-2-oxo-ethyl]-1-fluoro-cyclopropanecarboxamide]", "EC50": "100 to 1000"}
{"smiles": "Cc1n[nH]c(C)c1-c1ccc(NC(=O)[C@H](Cc2cc(-c3cccc(CN4C[C@H]5C[C@@H]4CN5)c3)ccc2Cl)NC(=O)C2(F)CC2)cc1", "note": "[Example 310, N-[(1S)-1-[[2-chloro-5-[3-[[(1R,4R)-2,5-diazabicyclo[2.2.1]heptan-2-yl]methyl]phenyl]phenyl]methyl]-2-[4-(3,5-dimethyl-1H-pyrazol-4-yl)anilino]-2-oxo-ethyl]-1-fluoro-cyclopropanecarboxamide]", "EC50": "100 to 1000"}
{"smiles": "CC(C)n1cc(-c2ccc(Cl)c(CC(NC(=O)c3ccnn3C)C(=O)Nc3ccc(-c4nn[nH]n4)cc3)c2)ccc1=O", "note": "(centres unmarked) [Example 66, N-[1-[[2-chloro-5-(1-isopropyl-6-oxo-3-pyridyl)phenyl]methyl]-2-oxo-2-[4-(2H-tetrazol-5-yl)anilino]ethyl]-2-methyl-pyrazole-3-carboxamide]", "EC50": "> 1000"}
{"smiles": "CC(C)n1cc(-c2ccc(Cl)c(CC(NC(=O)OC3CCC3)C(=O)Nc3ccc(-c4nncn4C)cc3)c2)ccc1=O", "note": "(centres unmarked) [Example 105, cyclobutyl N-[1-[[2-chloro-5-(1-isopropyl-6-oxo-3-pyridyl)phenyl]methyl]-2-[4-(4-methyl-1,2,4-triazol-3-yl)anilino]-2-oxo-ethyl]carbamate]", "EC50": "100 to 1000"}
{"smiles": "Cc1n[nH]c(C)c1-c1ccc(NC(=O)[C@@H](NC(=O)C2(F)CC2)[C@H](C)c2cccc(-c3ccnc(N4C[C@@H]5C[C@H]4CO5)c3)c2)cc1", "note": "[Example 341, N-[(1S,2R)-1-[[4-(3,5-dimethyl-1H-pyrazol-4-yl)phenyl]carbamoyl]-2-[3-[2-[(1S,4S)-2-oxa-5-azabicyclo[2.2.1]heptan-5-yl]-4-pyridyl]phenyl]propyl]-1-fluoro-cyclopropanecarboxamide]", "EC50": "< 100"}
{"smiles": "Cc1cnn(C)c1-c1ccc(NC(=O)[C@H](Cc2cc(-c3ccc(=O)n(C(C)C)c3)ccc2Cl)NC(=O)c2cn[nH]c2)cc1", "note": "[Example 323, N-[(1S)-1-[[2-chloro-5-(1-isopropyl-6-oxo-3-pyridyl)phenyl]methyl]-2-[4-(2,4-dimethylpyrazol-3-yl)anilino]-2-oxo-ethyl]-1H-pyrazole-4-carboxamide]", "EC50": "100 to 1000"}
{"smiles": "Cn1cncc1-c1ccc(NC(=O)[C@H](Cc2cc(-c3cccc([C@H]4CNCCO4)c3)ccc2Cl)NC(=O)c2ccnn2C)cc1", "note": "[Example 220, N-[(1S)-1-[[2-chloro-5-[3-[(2S)-morpholin-2-yl]phenyl]phenyl]methyl]-2-[4-(3-methylimidazol-4-yl)anilino]-2-oxo-ethyl]-2-methyl-pyrazole-3-carboxamide]", "EC50": "100 to 1000"}
{"smiles": "Cc1n[nH]c(C)c1-c1ccc(NC(=O)[C@@H](NC(=O)C2(F)CC2)[C@@H]2CCc3ccc(-c4ccnc(N5C[C@H]6C[C@@H]5CO6)c4)cc32)cc1", "note": "[Example 362, N-[(1S)-2-[4-(3,5-dimethyl-1H-pyrazol-4-yl)anilino]-1-[(1R)-6-[2-[(1R,4R)-2-oxa-5-azabicyclo[2.2.1]heptan-5-yl]-4-pyridyl]indan-1-yl]-2-oxo-ethyl]-1-fluoro-cyclopropanecarboxamide]", "EC50": "< 100"}
{"smiles": "CN1CCN(c2cc(-c3ccc(Cl)c(C[C@H](NC(=O)c4ccnn4C)C(=O)Nc4ccc(-c5cncn5C)cc4)c3)ccn2)CC1", "note": "[Example 206, N-[(1S)-1-[[2-chloro-5-[2-(4-methylpiperazin-1-yl)-4-pyridyl]phenyl]methyl]-2-[4-(3-methylimidazol-4-yl)anilino]-2-oxo-ethyl]-2-methyl-pyrazole-3-carboxamide]", "EC50": "100 to 1000"}
{"smiles": "CC(C)n1cc(-c2ccc(Cl)c(C[C@H](NC(=O)C(C)(F)F)C(=O)Nc3ccc(-c4nncn4C)cc3)c2)ccc1=O", "note": "[Example 283, N-[(1S)-1-[[2-chloro-5-(1-isopropyl-6-oxo-3-pyridyl)phenyl]methyl]-2-[4-(4-methyl-1,2,4-triazol-3-yl)anilino]-2-oxo-ethyl]-2,2-difluoro-propanamide]", "EC50": "> 1000"}
{"smiles": "C[C@H]1CNCCN1c1cc(-c2ccc(Cl)c(C[C@H](NC(=O)c3ccnn3C)C(=O)Nc3ccc(-c4cncn4C)cc3)c2)ccn1", "note": "[Example 208, N-[(1S)-1-[[2-chloro-5-[2-[(2S)-2-methylpiperazin-1-yl]-4-pyridyl]phenyl]methyl]-2-[4-(3-methylimidazol-4-yl)anilino]-2-oxo-ethyl]-2-methyl-pyrazole-3-carboxamide]", "EC50": "100 to 1000"}
{"smiles": "CC(C)n1cc(-c2ccc(Cl)c(CC(NC(=O)c3ccnn3C)C(=O)Nc3ccc(-c4nncn4C)c(O)c3)c2)ccc1=O", "note": "(centres unmarked) [Example 69, N-[1-[[2-chloro-5-(1-isopropyl-6-oxo-3-pyridyl)phenyl]methyl]-2-[3-hydroxy-4-(4-methyl-1,2,4-triazol-3-yl)anilino]-2-oxo-ethyl]-2-methyl-pyrazole-3-carboxamide]", "EC50": "100 to 1000"}
{"smiles": "Cn1cncc1-c1ccc(NC(=O)[C@H](Cc2cc(-c3ccnc(C(C)(O)C4CC4)c3)ccc2Cl)NC(=O)c2ccnn2C)cc1", "note": "(stereo partly drawn) [Example 141, N-[(1S)-1-[[2-chloro-5-[2-(1-cyclopropyl-1-hydroxy-ethyl)-4-pyridyl]phenyl]methyl]-2-[4-(3-methylimidazol-4-yl)anilino]-2-oxo-ethyl]-2-methyl-pyrazole-3-carboxamide]", "EC50": "< 100"}
